# Assay results from US20200148937A1, “INHIBITING HYDROCARBON HYDRATE AGGLOMERATION” (COMMONWEALTH SCIENTIFIC AND INDUSTRIAL RESEARCH ORGANISATION, priority 2017, published 2020).
# Assay: X-ray diffraction of the gas hydrates formed
# Type: physicochemical
# Details: systems 1-3; combination of structure I and structure II hydrate in all three systems
# Text: FIG. 17(a) illustrates the X-ray diffraction pattern of the gas hydrates formed in systems 1-3.
# The diffraction studies indicate that regardless of the nature of the AA used the XRD pattern of the solids formed are very similar indicating essentially the same hydrate mixtures are formed in each of systems 1-3. In short, there is a combination of structure I and structure II hydrate formed in all three systems considered.
smiles,measurement,value
Cc1c(C)c2c(c(C)c1OC(=O)CCC(=O)O)CCC(C)(CCCC(C)CCCC(C)CCCC(C)CCCC(C)C)O2 (stereo not shown) [tocopherol succinate],effect on structure of the hydrate formed (XRD pattern),does not alter the structure of the hydrate formed
